Experimental findings from patent US20160257697A1, “THIOPHENE-SUBSTITUTED TETRACYCLIC COMPOUNDS AND METHODS OFUSE THEREOF FOR THE TREATMENT OF VIRAL DISEASES” (priority 2013, published 2016) are described below.

Like-named read-outs stand apart in the source and are kept apart here.

Common to all, as to assay: microbe, parasite or virus in culture
Holding throughout (format): cell-based, Hepatitis C virus (HCV)
What all share (details): Replicon Assay A

The subject of assay [1] is HCV replicon 1AY93H. How it is done:
(§1) To measure cell-based anti-HCV activity of compounds of the present invention, two complimentary assays were employed using various replicons. In the first assay (“Replicon Assay A”), replicon cells were seeded at 2000 cells/well in 384-well 384-well flat bottom tissue culture treated clear bottom plate (Corning 3707) in the presence of the test compound. […] The final concentration of DMSO was 0.5%. Fetal bovine serum was 5%, in the assay media. Cells were harvested on day 3 by removing media and washing the cells with a suitable wash buffer. The cells are lysed with the addition of 1× Qiagen lysis buffer (Cat #1062731). The replicon RNA level was measured using real time PCR (TaqMan® EZ RT-PCR, Applied Biosystems 403028) with the following primers and probes: […]
(§2) Cyclophilin RNA was used as endogenous control and was amplified in the same reaction as NS5B (multiplex PCR). The real-time RT-PCR reactions were run on ABI PRISM 7900HT Sequence Detection System using the following program: 50° C. for 2 minutes, 60° C. for 30 minutes, 95° C. for 5 minutes, 40 cycles of 94° C. for 20 sec, 55° C. for 1 minutes.
(§3) The amount of HCV replicon RNA per cell is quantified using a linear regression curve for a known nanogram (ng) amount of HCV replicon total RNA. This is established by plotting the Cycle Threshold values (Ct) from the Neo probe and primer set versus the log (ng) for each HCV replicon total RNA standard. The amount of HCV RNA for each replicon sample is calculated by taking the sample's Ct value, minus the line intercept, divided by the slope of the line. Similarly, the amount of Cyclophilin mRNA per cell is also quantified using a linear regression curve for a known nanogram (ng) amount of HCV replicon total RNA. Again, this is established by plotting the Cycle Threshold values (Ct) from the Cyclophilin probe and primer set versus the log (ng) for each HCV replicon total RNA standard.
(§4) Data for replicons 1A, 1AY93H and 2B were obtained using Replicon Assay A and data for replicons 1AQ30D and 1B were obtained using Replicon Assay B.

For assay [2], the system named is HCV replicon 1A. How it is done: as §1, §2, §3, §4
The subject of assay [3] is HCV replicon 2B. How it is done: as §1, §2, §3, §4
[4] abbreviates: read-out: 1A Y93H IC50, replicon 1AY93H.
The mark [5] stands for this setting: Hepatitis C virus, read-out: 1A Y93H IC50 (nM), replicon 1AY93H.
The mark [6] stands for this setting: Hepatitis C virus, read-out: 2B IC50 (nM), replicon 2B.
The mark [7] stands for this setting: read-out: 1A Y93H IC50, HCV replicon 1A Y93H.
Setting [8] is: read-out: 2B IC50, HCV replicon 2B.

In general, IC50 refers to the point on the concentration scale where inhibition reaches its midpoint.

With `COC(=O)N[C@H](C(=O)N1C[C@H](F)C[C@@H]1c1ncc(-c2ccc3c(c2)OC(c2cc4ccccc4s2)n2c-3cc3cc(-c4ncc([C@@H]5C[C@@H](F)CN5C(=O)[C@@H](NC(=O)OC)C5CCOCC5)[nH]4)ccc32)[nH]1)C1CCOCC1` (mixture of isomers) [Compound 814], the IC50 in assay [1] (Hepatitis C virus, read-out: 1A Y93H IC50, HCV replicon 1A Y93H) was 0.055 nM; in assay [2] (Hepatitis C virus, HCV replicon 1A) it was 0.1 nM.
In the case of `COC(=O)NC(C(=O)N1CCC[C@H]1c1ncc(-c2ccc3c(c2)cc2n3C(c3cc(C)c(C)s3)Oc3cc(-c4cnc([C@@H]5CCCN5C(=O)[C@@H](NC(=O)OC)C(C)C)[nH]4)cc(F)c3-2)[nH]1)C(C)(C)F` (single isomer, unassigned) [Compound 40], the IC50 in assay [1] (setting [4]) was 1.12 nM; in assay [2] (replicon 1A), 0.002 nM.
For `COC(=O)NC(C(=O)N1CCC[C@H]1c1ncc(-c2ccc3c(c2)cc2n3C(c3cc(C)c(C)s3)Oc3cc(-c4cnc([C@@H]5CCCN5C(=O)[C@@H](NC(=O)OC)C(C)C)[nH]4)cc(F)c3-2)[nH]1)C(C)(C)F` (single isomer, unassigned) [Compound 41] the same measures were 2.45 nM and 0.002 nM.
For `COC(=O)NC(C(=O)N1CCC[C@H]1c1ncc(-c2ccc3c(c2)cc2n3C(c3cc(C)c(C)s3)Oc3cc(-c4cnc([C@@H]5CCCN5C(=O)[C@@H](NC(=O)OC)C(C)C)[nH]4)cc(F)c3-2)[nH]1)C(C)(C)F` (single isomer, unassigned) [Compound 42] the same measures were 42.5 nM and 0.0287 nM.
For `COC(=O)N[C@H](C(=O)C1CCC[C@H]1c1ncc(-c2ccc3c(c2)cc2n3C(c3ccc(C(F)(F)F)s3)Oc3cc(-c4cnc([C@@H]5CCCN5C(=O)[C@@H](NC(=O)OC)C(C)C)[nH]4)cc(F)c3-2)[nH]1)C(C)C` (single isomer, unassigned) [Compound 90], the IC50 in assay [1] (setting [4]) worked out at 0.74 nM; in assay [3] (read-out: 2B IC50, replicon 2B) it was 1.91 nM.
`COC(=O)N[C@H](C(=O)N1CCC[C@H]1c1ncc(-c2cc(F)c3c(c2)OC(c2ccc(CCC4CC4)s2)n2c-3cc3cc(-c4cnc([C@@H]5CCCN5C(=O)[C@@H](NC(=O)OC)C(C)C)[nH]4)ccc32)[nH]1)C(C)C` (single isomer, unassigned) [Compound 91]: the values for the IC50 in assay [1] (setting [5]) and in assay [3] (setting [6]) were 0.28 nM and 3.14 nM, respectively.
In the case of `COC(=O)NC(C(=O)N1CCC[C@H]1c1ncc(-c2cc(F)c3c(c2)OC(c2ccc(C4CC4)s2)n2c-3cc3cc(-c4cnc([C@@H]5C[C@H]6C[C@H]6N5C(=O)[C@@H](NC(=O)OC)C(C)C)[nH]4)ccc32)[nH]1)C(C)(C)F` (single isomer, unassigned) [Compound 99], the IC50 in assay [1] (setting [4]) was found to be 0.53 nM; in assay [3] (read-out: 2B IC50, replicon 2B), 1.55 nM.
In the case of `COC(=O)NC(C(=O)N1CCC[C@H]1c1ncc(-c2cc(F)c3c(c2)OC(c2ccc(C4CC4)s2)n2c-3cc3cc(-c4cnc([C@@H]5C[C@H]6C[C@H]6N5C(=O)[C@@H](NC(=O)OC)C(C)C)[nH]4)ccc32)[nH]1)C(C)(C)F` (single isomer, unassigned) [Compound 100], the results for the concentration for half-maximal inhibition (IC50) in assay [1] (setting [4]) and in assay [2] (replicon 1A) were 8.26 nM and 0.0242 nM, respectively.
For `COC(=O)NC(C(=O)N1CCC[C@H]1c1ncc(-c2ccc3c(c2)cc2n3C(c3ccc(C4CC4)s3)Oc3cc(-c4cnc([C@@H]5C[C@@H](F)CN5C(=O)[C@@H](NC(=O)OC)C(C)C)[nH]4)cc(F)c3-2)[nH]1)C(C)(C)F` (single isomer, unassigned) [Compound 113] the same measures were 3.92 nM and 0.0428 nM.
For the molecule `COC(=O)NC(C(=O)N1CCC[C@H]1c1ncc(-c2cc(F)c3c(c2)OC(c2ccc(C4CC4)s2)n2c-3cc3cc(-c4cnc([C@@H]5CCCN5C(=O)[C@@H](NC(=O)OC)C(C)C)[nH]4)ccc32)[nH]1)C1C[C@@H](C)O[C@@H](C)C1` (single isomer, unassigned) [Compound 187], the 50% inhibitory concentration (IC50) is 14.8 nM in assay [1] (setting [4]) and 0.0664 nM in assay [2] (replicon 1A).
`CCc1ccc(C2Oc3cc(-c4cnc([C@@H]5CCCN5C(=O)[C@@H](NC(=O)OC)C(C)C)[nH]4)cc(F)c3-c3cc4cc(-c5cnc([C@@H]6C[C@H]7C[C@H]7N6C(=O)C(NC(=O)OC)C6CCOC(C)(C)C6)[nH]5)ccc4n32)s1` (single isomer, unassigned) [Compound 198]: the results for the IC50 in assay [1] (setting [4]) and in assay [2] (replicon 1A) were 14.3 nM and 0.077 nM, respectively.
In the case of `COC(=O)NC(C(=O)N1CCC[C@H]1c1ncc(-c2cc(F)c3c(c2)OC(c2ccc(C4CC4)s2)n2c-3cc3cc(-c4cnc([C@@H]5CCCN5C(=O)[C@@H](NC(=O)OC)C(C)C)[nH]4)ccc32)[nH]1)C1CCOC(C)(C)C1` (single isomer, unassigned) [Compound 213], the IC50 in assay [1] (setting [4]) was 13.6 nM; in assay [2] (replicon 1A), 0.0653 nM.
The corresponding values for `COC(=O)NC(C(=O)N1CCC[C@H]1c1ncc(-c2ccc3c(c2)cc2n3C(c3ccc(C4CC4)s3)Oc3cc(-c4cnc([C@@H]5CCCN5C(=O)[C@@H](NC(=O)OC)C(C)C)[nH]4)cc(F)c3-2)[nH]1)C1CCOC(C)(C)C1` (single isomer, unassigned) [Compound 224] are 8.88 nM and 0.048 nM.
Regarding `CCc1ccc(C2Oc3cc(-c4cnc([C@@H]5CCCN5C(=O)[C@@H](NC(=O)OC)C(C)C)[nH]4)cc(F)c3-c3cc4cc(-c5cnc([C@@H]6C[C@@H](F)CN6C(=O)C(NC(=O)OC)C6CCOC(C)(C)C6)[nH]5)ccc4n32)s1` (single isomer, unassigned) [Compound 255], the IC50 in assay [1] (setting [4]) was determined as 0.084 nM; in assay [3] (read-out: 2B IC50, replicon 2B) it was 3.63 nM.
The corresponding values for `COC(=O)NC(C(=O)N1CCC[C@H]1c1ncc(-c2ccc3c(c2)cc2n3C(c3ccc(C(F)F)s3)Oc3cc(-c4cnc([C@@H]5CCCN5C(=O)[C@@H](NC(=O)OC)C(C)C)[nH]4)cc(F)c3-2)[nH]1)C1C[C@@H](C)O[C@@H](C)C1` (single isomer, unassigned) [Compound 265] are 0.16 nM and 0.25 nM.
The corresponding values for `COC(=O)NC(C(=O)N1[C@@H]2C[C@@H]2C[C@H]1c1ncc(-c2ccc3c(c2)cc2n3C(c3ccc(C4CC4)s3)Oc3cc(-c4cnc([C@@H]5CCCN5C(=O)[C@@H](NC(=O)OC)C(C)C)[nH]4)cc(F)c3-2)[nH]1)C1CCOC(C)(C)C1` (single isomer, unassigned) [Compound 277] are 0.13 nM and 0.58 nM.
On to `COC(=O)NC(C(=O)N1[C@@H]2C[C@@H]2C[C@H]1c1ncc(-c2ccc3c(c2)cc2n3C(c3ccc(C(C)C)s3)Oc3cc(-c4cnc([C@@H]5CCCN5C(=O)[C@@H](NC(=O)OC)C(C)C)[nH]4)cc(F)c3-2)[nH]1)C1C[C@@H](C)O[C@@H](C)C1` (single isomer, unassigned) [Compound 283], for which the results for the IC50 in assay [1] (setting [5]) and in assay [3] (setting [6]) were 0.192 nM and 0.68 nM, respectively.
Take `COC(=O)NC(C(=O)N1CCC[C@H]1c1ncc(-c2ccc3c(c2)cc2n3C(c3ccc(C4CC4)s3)Oc3cc(-c4cnc([C@@H]5CCCN5C(=O)[C@@H](NC(=O)OC)C(C)C)[nH]4)cc(F)c3-2)[nH]1)C1CCCCO1` (single isomer, unassigned) [Compound 341]: the IC50 in assay [1] (setting [4]) was 0.52 nM; in assay [3] (read-out: 2B IC50, replicon 2B), 1.24 nM.
In the case of `COC(=O)N[C@H](C(=O)N1CCC[C@H]1c1ncc(-c2cc(F)c3c(c2)OC(c2cc(C)c(C)s2)n2c-3cc3cc(-c4cnc([C@@H]5C[C@H]6C[C@H]6N5C(=O)[C@@H](NC(=O)OC)C(C)C)[nH]4)ccc32)[nH]1)C(C)C` (single isomer, unassigned) [Compound 507], the IC50 in assay [1] (setting [7]) worked out at 0.0896 nM; in assay [3] (setting [8]), 1.88 nM.
The corresponding values for `COC(=O)N[C@H](C(=O)N1CCC[C@H]1c1ncc(-c2cc(F)c3c(c2)OC(c2cc(C)c(C)s2)n2c-3cc3cc(-c4cnc([C@@H]5C[C@H]6C[C@H]6N5C(=O)[C@@H](NC(=O)OC)C(C)C)[nH]4)ccc32)[nH]1)C(C)C` (single isomer, unassigned) [Compound 509] are 6.12 nM and 6.82 nM.
The corresponding values for `COC(=O)N[C@H](C(=O)N1CCC[C@H]1c1ncc(-c2cc(F)c3c(c2)OC(c2scc4c2OCCO4)n2c-3cc3cc(-c4cnc([C@@H]5CCCN5C(=O)[C@@H](NC(=O)OC)C(C)C)[nH]4)ccc32)[nH]1)C(C)C` (single isomer, unassigned) [Compound 525] are 15.1 nM and 3.14 nM.
For `CCc1ccc(C2Oc3cc(-c4cnc([C@@H]5CCCN5C(=O)[C@@H](NC(=O)OC)C(C)C)[nH]4)ccc3-c3c(F)c4cc(-c5cnc([C@@H]6CCCN6C(=O)[C@@H](NC(=O)OC)C(C)C)[nH]5)ccc4n32)s1` (single isomer, unassigned) [Compound 601], the IC50 in assay [1] (setting [7]) amounted to 4 nM; in assay [3] (setting [8]), 1.24 nM.
